# “And” between values parts separate entries of the source, which are not always exact repeats. Equal entries are not always repeated. Marks after values point to notes of the source that are not given here.
# Legend:
# [1] = test system: Gut Microbiota in HFD-Fed Mice; experiment: Gut microbiota classification by next generation sequencing (Example 4); type: in vivo, mouse
# Protocol: Total DNA was extracted from fresh fecal samples by using the innuPREP Stool DNA kit (Analytik Jena AG, Jena, Germany) according to the manufacturer's instructions. According to the concentration, DNA was diluted to 1 ng μ L^−1 using sterile water. 6SrRNA/18SrRNA/ITS genes of distinct region (16SV4/16SV3/16SV3-V4/16SV4-V5, 18S V4/18S V9, ITS1/ITS2, Arc V4) were amplified using a specific primer (e.g. 16SV4: 515F-806R, 18S V4: 528F-706R, and 18S V9: 1380F-1510R) with a barcode. All PCR reactions were carried out using a Phusion® High-Fidelity PCR master mix (New England Biolabs, Ipswich, Mass., USA). The PCR products were mixed in ratios of equal density. Then, the mixed PCR products were purified using a Qiagen gel extraction kit (Qiagen, Hilden, Germany). Sequencing libraries were generated using the TruSeq® DNA PCR-free sample preparation kit (Illumina, San Diego, Calif., USA) following the manufacturer's recommendations, and index codes were added. The library quality was assessed using the Qubit@ 2.0 Fluorometer (Thermo Scientific) and Agilent Bioanalyzer 2100 system. Lastly, the library was sequenced using an Illumina HiSeq 2500 platform, and 250 bp paired-end reads were generated. The classification was based on the Greengenes database (https://greengenes.lbl.gov/).
# [2] = test system: HFD-Induced Obese Mice (C57BL/6); conditions: mouse, in vivo
# Protocol: (§1) Four-week-old, male C57BL/6 mice were purchased from the BioLASCO Experimental Animal Center (Taiwan Co., Ltd., Taipei, Taiwan) and housed in a controlled atmosphere (25±1° C. at 50% relative humidity) with a 12 h light/12 h dark cycle. After 1 week of acclimation, animals were randomly distributed into 6 groups as follows: normal diet (ND, 15% energy from fat), high-fat diet (HFD, 50% energy from lard-based fat), and HFD supplemented with 0.01% garcinol (GAR group), 0.025% Forskolin (FOR group), 0.005% GAR+0.025% FOR (LMIX group), and 0.01% Gar+0.025% For (HMIX group) for 12 weeks. […] Animals had free access to food and water. Food consumption was monitored daily and the body weight was recorded weekly. At the end of the experiments, all animals were sacrificed by CO2 asphyxiation. Blood samples were collected from the heart for biochemical analysis. The liver, spleen, kidney, fat pads (perigonadal, retroperitoneal, and mesenteric fat), and fresh fecal pellets were immediately removed and stored at −80° C. until further analysis.
# (§2) Liver and the perigonadal adipose tissue were dissected and fixed in 10% buffered formalin for at least 24 h, dehydrated with a sequence of ethanol solutions, and processed for embedding in paraffin. Sections of 4 μm in thickness were cut, deparaffinized, rehydrated, stained with hematoxylin and eosin (H&E), and subjected to photo microscopic observation. Adipocyte size was measured at 100× magnification and determined by Image J software (U. S. National Institutes of Health, Bethesda, Md., USA).
# [3] = test system: HFD-Induced Obese Mice (C57BL/6); experiment: GAR, FOR, LMIX, HMIX in HFD-induced obese mice, 12 weeks (Example 4)
# Protocol: as §1, §2
# [4] = 0.01% GAR, 0.025% FOR, LMIX, HMIX
structure (smiles),measurement,setting,value
"C=C[C@@]1(C)CC(=O)[C@]2(O)[C@@]3(C)[C@@H](O)CCC(C)(C)[C@@H]3[C@H](O)[C@H](OC(C)=O)[C@@]2(C)O1 [FOR, Forskolin, reference compound]",abundance of Firmicutes,[1]; 12 weeks (HFD group 43.0%),33.5%
same,abundance of Bacteroidetes,[1]; 12 weeks (HFD group 50.2%),62.2%
same,OTUs difference between ND and HFD groups (Venn diagram),"[1]; 12 weeks, FIG. 23A",34 OTUs
same,Kidney,[2],0.4 ± 0.02^a g
same,Spleen,[2],0.06 ± 0.01^a g
same,Final weight,[3]; [4],30.5 g and 30.5 ± 2.6^c g
same,Weight gain,[3]; [4],9.1 ± 1.8^c g
same,Liver,[3]; organ weight,1.5 ± 0.2^bc g

# — patent US20200030388A1, “COMPOSITIONS FOR MODIFYING GUT MICROBIOTA” (priority 2017, published 2020)
